{"source": "patent US9359405B2", "about": "“Antagonists of the interleukin-1 receptor” (Phlogo ApS, priority 2011, dated 2016)", "molecules": {"B1": {"name": "SIL1RI: soluble IL1 receptor type 1 protein, positive control (protein)", "chain": "LEADKCKEREEKIILVSSANEIDVRPCPLNPNEHKGTITWYKDDSKTPVSTEQASRIHQHKEKLWFVPAKVEDSGHYYCVVRNSSYCLRIKISAKFVENEPNLCYNAQAIFKQKLPVAGDGGLVCPYMEFFKNENNELPKLQWYKDCKPLLLDNIHFSGVKDRLIVMNVAEKHRGNYTCHASYTYLGKQYPITRVIEFITLEENKPTRPVIVSPANETMEVDLGSQIQLICNVTGQLSDIAYWKWNGSVIDEDDPVLGEDYYSVENPANKRRSTLITVLNISEIESRFYKHPFTCFAKNTHGIDAAYIQLIYPVTNFQK"}}, "key": {"[1]": {"test": "Peptide solubility on reconstitution", "type": "physicochemical", "from_the_text": "Upon receiving the peptides from the synthesizing company (as powder), they were reconstituted in water, in PBS or in medium. Thus it is immediately apparent whether a peptide is soluble or not."}, "[2]": {"tested_on": "NF-κB activated by IL1β (IL1RI signaling), HEK-Blue IL1β cells", "test": "IL1RI signaling assay, HEK-Blue IL1β reporter cells (NF-κB/SEAP)", "type": "cell-based", "conditions": "IL1β 1.2 μM", "from_the_text": "(§1) IL1RI signaling assay: Commercially available Blue™ Cytokine Reporter Cell technology from InvivoGen (Denmark distributor: Sigma-Aldrich Denmark) was used. It is represented by an expanding family of engineered cell lines designed to provide a simple, rapid, and reliable method of monitoring the activation of signaling pathways induced by key cytokines. HEK-Blue™ IL1β cells are specifically engineered to selectively respond to IL1β, and they feature the secreted embryonic alkaline phosphatase (SEAP) reporter gene under the control of an NF-κB-inducible promoter. […] A target/receptor-specificity of the Ilantafin effect was verified employing HEK-Blue™ IL6 cells."}, "[3]": {"tested_on": "IL1β-activated AMJ2-C8 macrophage cells", "test": "TNFα secretion by IL1β-activated macrophages (L929/MTS bioassay)", "type": "cell-based", "conditions": "IL1β 1.2 μM", "description": "The Ilantafin peptide or IL1Ra or IL1RI was added to cultures of macrophages (AMJ2-C8) seeded in 6-well multi-dishes (Nunc) (2.5×10^5 cells/well). After 24 h of incubation at 37° C., IL1β (1.2 μM) was added to the cultures to activate the macrophages. L929 cells were seeded in a 96-well plate at a density of 2×10^5 cells/mL. Both cell cultures were incubated for 24 h at 37° C. Conditioned medium from the macrophage cultures was collected and added to the fibroblast cultures together with 0.6 μg/well actinomycin. D (Sigma-Aldrich). Finally, after 24 h of incubation at 37° C., 20 μl of 3-(4,5-dimethylthiazol-2-yl)-5-(3-carboxymethoxyphenyl)-2-(4-sulfophenyl)-2H-tetrazolium (MTS) (Promega, Madison, Wis., USA) was added to each well and the plates were incubated protected from light, at 37° C., for ˜45 min and the optical density was measured at 490 nm in a Sunrise absorbance reader (Tecan, Männedorf, Switzerland). In order to calculate the amount of TNF-α in the conditioned medium, a standard curve was obtained by treating fibroblasts with different concentrations of TNF-α (R&D systems, Minneapolis, Minn., USA)."}, "[4]": {"tested_on": "cerebellar granule neurons", "test": "Survival assay, cerebellar granule neurons, low-potassium apoptosis", "type": "cell-based, rat", "conditions": "5 mM KCl, 2 days", "description": "Survival assay: Primary cultures of CGN were plated at a density of 100,000 cells/cm2 on poly-L-lysine coated 8-well permanox slides in Neurobasal-A medium (Gibco BRL) supplemented with 2% (v/v) B27, 0.5% (v/v) glutamax, 100 units/mL penicillin, 100 µg/mL streptomycin and KCl, making the final concentration of KCl in the medium 40 mM. 24 hours after plating, cytosine-b-D-arabinofuranoside (Ara-C; Sigma-Aldrich) was added to a final concentration of 10 μM to avoid proliferation of glial cells, after which the neurons were allowed to differentiate for a further 6 days at 37° C. Apoptotic cell death was induced by washing twice and changing the medium to Basal Medium Eagle (BME; Gibco BRL) supplemented with 1% (v/v) glutamine, 100 U/mL penicillin and 100 µg/mL streptomycin, 3.5 g D-glucose/L and 1% (v/v) sodium pyruvate (Gibco BRL) together with various concentrations of peptide. Thereby the concentration of potassium in the cultures was reduced to 5 mM KCl (Ditlevsen et al., 2003). Two days after induction of apoptosis, the cells were fixed with 4% (v/v) formaldehyde and stained with Hoechst 33258 as described for the survival assay employing hippocampal neurons."}, "[5]": {"tested_on": "cerebellar granule neurons", "test": "Neurite outgrowth in primary cerebellar granule neurons", "type": "cell-based, rat", "conditions": "for neurite outgrowth: 24 h, primary cerebellar neurons", "description": "Cerebellar granular neurons (CGN) were prepared from 3 or 7 postnatal (P) day Wistar rats (Charles River, Sulzfeld, Germany or Taconic, Ejby, Denmark). Cerebella were cleared of meninges and blood vessels, roughly homogenized by chopping, and trypsinized with trypsin from Sigma-Aldrich (Brøndby, Denmark). The neurons were washed in the presence of DNAse 1 and soybean trypsin inhibitor (Sigma-Aldrich), and cellular debris was pelleted by centrifugation before plating. CGNs were plated at a density of 10,000 cells/well onto uncoated eight-well Lab-Tek chamber slides (NUNC, Slangerup, Denmark) in Neurobasal-A medium supplemented with 0.4% (w/v) BSA. Peptides or proteins at various concentrations were added to the medium immediately after plating, and cells were maintained at 37° C. and 5% CO2 for 24 h. Cultures then were fixed, blocked and incubated with polyclonal rabbit antibody against rat GAP-43 (Chemicon, Temecula, Calif., USA) followed by incubation with secondary Alexa Fluor488 goat anti-rabbit antibody (Molecular Probes, Eugene, Oreg., USA) as previously described (Neiiendam et al., 2004). The immunostained cultures were all recorded by computer-assisted fluorescence microscopy using a Nikon Diaphot inverted microscope (Nikon, Japan) equipped with a Nikon Plane 20× objective. Images were captured with a charge-coupled device video camera (Grundig Electronics, Nurnberg, Germany) using the software package Prima developed at the Protein Laboratory (University of Copenhagen, Copenhagen, Denmark). The length of neuronal processes per cell was estimated using the software package Process Length developed at the Protein Laboratory (Ronn et al. 2000). For estimation of neurite outgrowth, at least 200±20 cells were processed for each group in each individual experiment."}, "IL1RI [6]": {"target": "T1, IL1RI (Homo sapiens, UniProt P14778)", "T1 construct": "The recombinant protein comprising the whole extracellular part of IIL1RI was immobilised on the surface of a CM5 sensor chip", "test": "ka (M^-1s^-1)", "from_the_text": "(§2) Table printed on a drawing sheet, Figure 3\nHead of the field: ka (M^-1s^-1)\n(§3) First copying reader's note: Rate and affinity constants for binding to IL1RI; each cell holds the value with its ± error, and Ilantafin is a peptide while ILRa and IL1β are proteins."}, "IL1RI [7]": {"target": "T1, IL1RI", "test": "Kb (s^-1)", "from_the_text": "as §2\nHead of the field: Kb (s^-1)\nas §3"}, "[8]": {"tested_on": "STAT signalling induced by IL6, HEK-Blue IL6 cells", "test": "Target specificity, HEK-Blue IL6 cells", "type": "cell-based", "from_the_text": "as §1"}, "[9]": {"tested_on": "collagen-induced arthritis (CIA)", "test": "Collagen-induced arthritis in rats, treatment from day 15 (Example 7)", "type": "in vivo, rat", "conditions": "3.3 and 10 mg/kg s.c. daily from day 15", "from_the_text": "Rheumatoid arthritis is a chronic, inflammatory, systemic autoimmune disease that affects about 1% of the general population in Western countries. Collagen-induced arthritis (CIA) in rats is a widely employed animal model for the screening of anti-inflammatory compounds. Collagen bovine, type II (CII, Cat.no.20021, Lot 090209, Chondrex, USA), Complete Freund's Adjuvant, containing 0.1% of Mycobacterium tuberculosis (CFA, Cat.no. F5581, Lot 049K8700, Sigma-Aldrich), Incomplete Freund's Adjuvant (IFA, Cat.no. F5506, Lot 058K8702, Sigma). PBS (Panum Institute, Copenhagen University). Isofluran (Baxter). Animals were immunized twice: on day 0 (CII+CFA) and on day 10 (CII+IFA, booster). On day 15 the mean clinical score reached a value of 5.0 and all animals were divided into 3 groups so that the severity of disease (mean clinical score) in all groups was almost equal. The peptide (two doses, 3.3 and 10 mg/kg) was administered subcutaneously daily starting at day 15. The clinical evaluation of the arthritis severity was assessed using the following grading system: O— no redness or swelling in foot and palm; 1—slight swelling or redness in metatarsophalangeal joint and ankle joint foot or palm; 2—progressed swelling/inflammation and redness from ankle to mid foot or in entire palm; 3—swelling/inflammation of entire foot except toes; 4—swelling and inflammation of entire foot including toes."}}, "note": "No end group written: not given here."}
{"molecule": "EGVMVTKFYFQED-OH [Ilantafin-5, EGVMVTKFYFQED]", "values": [{"measurement": "solubility", "setting": "[1]", "value": "completely insoluble when produced"}]}
{"molecule": "SGRKSSKMQA-OH [Ilantafin-m]", "values": [{"measurement": "inhibition of NF-κB activation induced by IL1β", "setting": "[2]", "value": "inhibitory effect"}, {"measurement": "inhibition of TNFα secretion by IL1β-activated macrophages", "setting": "[3]", "value": "inhibitory effect"}, {"measurement": "neuronal survival / cell death (apoptosis) induced by lowering potassium", "setting": "[4]", "value": "promotes survival of cerebellar granule neurons"}]}
{"molecule": "NQLVAGYLQGPNVN-OH [Ilantafin-3]", "values": [{"measurement": "solubility in water", "setting": "[1]", "value": "not soluble in water"}]}
{"molecule": "IL1β: Interleukin-1 beta, pro-inflammatory cytokine, agonist of the IL1 receptor [listing 1 of 2 here]", "values": [{"measurement": "neurite outgrowth", "setting": "[5]", "value": "does not affect neuritogenesis"}, {"measurement": "effect on Ilantafin- and IL1Ra-induced neurite outgrowth", "setting": "[5]; co-treatment", "value": "inhibits Ilantafin- and IL1Ra induced neurite outgrowth"}]}
{"molecule": "AQMKSSKRGS (listed as Homo sapiens) [Ilantafin rev-d, reference compound]", "values": [{"measurement": "inhibition of NF-κB activation induced by IL1β", "setting": "[2]", "value": "neither two peptides with scrambled sequences, Ilantafin scr-d1 (KQSAGKRSMS) (SEQ ID NO:39), Ilantafin scr-d2 (KASQKGMSRS) (SEQ ID NO:40), nor a peptide with the reverseequence, Ilantafin rev-d (AQMKSSKRGS) (SEQ ID NO:41) inhibit the activation of NF-KB induced by IL1β"}]}
{"molecule": "KASQKGMSRS (listed as Homo sapiens) [Ilantafin scr-d2, reference compound]", "values": [{"measurement": "inhibition of NF-κB activation induced by IL1β", "setting": "[2]", "value": "neither two peptides with scrambled sequences, Ilantafin scr-d1 (KQSAGKRSMS) (SEQ ID NO:39), Ilantafin scr-d2 (KASQKGMSRS) (SEQ ID NO:40), nor a peptide with the reverseequence, Ilantafin rev-d (AQMKSSKRGS) (SEQ ID NO:41) inhibit the activation of NF-KB induced by IL1β"}]}
{"molecule": "KQSAGKRSMS (listed as Homo sapiens) [Ilantafin scr-d1, reference compound]", "values": [{"measurement": "inhibition of NF-κB activation induced by IL1β", "setting": "[2]", "value": "neither two peptides with scrambled sequences, Ilantafin scr-d1 (KQSAGKRSMS) (SEQ ID NO:39), Ilantafin scr-d2 (KASQKGMSRS) (SEQ ID NO:40), nor a peptide with the reverseequence, Ilantafin rev-d (AQMKSSKRGS) (SEQ ID NO:41) inhibit the activation of NF-KB induced by IL1β"}]}
{"molecule": "IL1β: Interleukin-1 beta, pro-inflammatory cytokine, agonist of the IL1 receptor [listing 2 of 2 here]", "values": [{"measurement": "ka (M^-1s^-1)", "setting": "IL1RI [6]", "value": "1.84 ± 0.20 x 10^5 M^-1s^-1"}, {"measurement": "Kb (s^-1)", "setting": "IL1RI [7]", "value": "2.69 ± 0.58 x 10^-3 s^-1"}]}
{"molecule": "IL1Ra: IL-1 receptor antagonist protein; commercial IL1Ra used as positive control", "values": [{"measurement": "inhibition of NF-κB activation induced by IL1β", "setting": "[2]", "value": "inhibitory effect"}, {"measurement": "neurite outgrowth", "setting": "[5]", "value": "induce neurite outgrowth in primary cerebellar neurons in a dose-dependent manner"}, {"measurement": "inhibition of TNFα secretion by IL1β-activated macrophages", "setting": "[3]", "value": "also inhibit macrophage activation"}]}
{"molecule": "SGRKSSKMQA (also: tetrameric dendrimer; listed as Homo sapiens) [Ilantafin-d]", "values": [{"measurement": "inhibition of NF-κB activation induced by IL1β", "setting": "[2]", "value": "inhibitory effect"}, {"measurement": "effect on STAT signalling induced by IL6", "setting": "[8]", "value": "does not affect the activation of STAT signalling induced by IL6"}, {"measurement": "clinical manifestations (clinical score) of CIA", "setting": "[9]", "value": "abrogated an increase in clinical manifestations of the disease"}, {"measurement": "inhibition of TNFα secretion by IL1β-activated macrophages", "setting": "[3]", "value": "inhibitory effect"}, {"measurement": "neuronal survival / cell death (apoptosis) induced by lowering potassium", "setting": "[4]", "value": "promotes survival of cerebellar granule neurons"}]}
{"molecule": "NQKTFYLRNNQL-OH [Ilantafin-6]", "values": [{"measurement": "solubility in PBS or medium", "setting": "[1]", "value": "not soluble in PBS or medium"}, {"measurement": "solubility in water", "setting": "[1]", "value": "soluble in water"}]}
{"molecule": "AGYLQGPNVN-OH [Ilantafin-2]", "values": [{"measurement": "solubility in PBS or medium", "setting": "[1]", "value": "not soluble in PBS or medium"}, {"measurement": "solubility in water", "setting": "[1]", "value": "soluble in water"}]}
{"molecule": "VTKFYFQED-OH [Ilantafin-4, VTKFYFQED]", "values": [{"measurement": "solubility in water", "setting": "[1]", "value": "not soluble in water"}]}
{"molecule": "B1", "values": [{"measurement": "inhibition of NF-κB activation induced by IL1β", "setting": "[2]", "value": "inhibitory effect"}, {"measurement": "neurite outgrowth", "setting": "[5]", "value": "induce neurite outgrowth in primary cerebellar neurons in a dose-dependent manner"}, {"measurement": "inhibition of TNFα secretion by IL1β-activated macrophages", "setting": "[3]", "value": "also inhibit macrophage activation"}]}
